Test results from US11040027B2, “Protein kinase inhibitors for promoting liver regeneration or reducing or preventing hepatocyte death” (HEPAREGENIX GMBH, priority 2017, dated 2021).

Key:
BRaf = BRaf (Homo sapiens, UniProt P15056); assay: KINOMEscan competition binding assay, selectivity BRaf versus MKK4; conditions: Test conc. 0.1 μM; ratio of percent of control; N/E* per footnote
Description: The assay was performed by combining three components: DNA-tagged kinase; immobilized ligand; and a test compound. The ability of the test compound to compete with the immobilized ligand was measured via quantitative PCR of the DNA tag. The technology is described in detail in Fabian, M. A. et al. A small molecule-kinase interaction map for clinical kinase inhibitors. Nat. […] Nat.
The test compounds were provided as 10 mM stock solutions. The test solutions at indicated final concentrations were prepared at DiscoverX.

MKK4 active = target: T1, MKK4 active (Homo sapiens, UniProt P45985); assay: Radiometric protein kinase assay, MKK4 active; format: biochemical; conditions: substrate JNK1 KRKR, ATP 0.2 μM, read-out: MKK4 (potency derived from IC50-values)
T1 construct: purchased ProQinase 0948-0000-1
T1 sequence (P45985 1-399): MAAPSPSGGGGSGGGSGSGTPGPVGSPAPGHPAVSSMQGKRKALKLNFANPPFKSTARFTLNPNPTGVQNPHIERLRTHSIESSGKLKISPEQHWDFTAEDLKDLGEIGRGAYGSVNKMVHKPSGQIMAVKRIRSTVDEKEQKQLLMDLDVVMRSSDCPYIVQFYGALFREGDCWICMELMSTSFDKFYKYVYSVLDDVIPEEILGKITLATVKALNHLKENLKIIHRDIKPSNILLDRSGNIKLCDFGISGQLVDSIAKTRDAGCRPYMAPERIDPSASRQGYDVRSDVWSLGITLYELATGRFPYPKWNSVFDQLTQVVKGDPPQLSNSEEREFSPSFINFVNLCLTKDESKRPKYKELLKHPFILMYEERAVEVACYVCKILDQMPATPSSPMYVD
Description: (§1) A radiometric protein kinase assay was used for measuring the kinase activity of the respective protein kinases. All kinase assays were performed in 96-well polypropylene plates. After the reactions were stopped, the assay mixtures were transferred to 96-well MSFC filter-plates (Millipore). The reaction mix was passed through the filter membrane by aspiration, the membrane was washed 3 times with 150 mM H3PO4, once with ethanol, dried and liquid scintillation cocktail was added. Radioactivity was determined by counting of the samples in a Microbeta multiwell scintillation counter (Wallac).
(§2) b) Single Kinases • 20 μl standard assay buffer • 5 μl compound in 10% DMSO • 20 μl enzyme-substrate mix • 10 μl of substrate solution
(§3) The reaction cocktails were incubated at 30° C. for 30 minutes.

MEKK2 = target: T2, MEKK2 (Homo sapiens, UniProt Q9Y2U5); assay: Radiometric protein kinase assay, MEKK2; format: biochemical; conditions: substrate Casein, ATP 0.2 μM; read-out: MEKK2 (potency derived from IC50-values)
T2 construct: purchased ProQinase 0583-0000-1
T2 sequence (Q9Y2U5 1-619): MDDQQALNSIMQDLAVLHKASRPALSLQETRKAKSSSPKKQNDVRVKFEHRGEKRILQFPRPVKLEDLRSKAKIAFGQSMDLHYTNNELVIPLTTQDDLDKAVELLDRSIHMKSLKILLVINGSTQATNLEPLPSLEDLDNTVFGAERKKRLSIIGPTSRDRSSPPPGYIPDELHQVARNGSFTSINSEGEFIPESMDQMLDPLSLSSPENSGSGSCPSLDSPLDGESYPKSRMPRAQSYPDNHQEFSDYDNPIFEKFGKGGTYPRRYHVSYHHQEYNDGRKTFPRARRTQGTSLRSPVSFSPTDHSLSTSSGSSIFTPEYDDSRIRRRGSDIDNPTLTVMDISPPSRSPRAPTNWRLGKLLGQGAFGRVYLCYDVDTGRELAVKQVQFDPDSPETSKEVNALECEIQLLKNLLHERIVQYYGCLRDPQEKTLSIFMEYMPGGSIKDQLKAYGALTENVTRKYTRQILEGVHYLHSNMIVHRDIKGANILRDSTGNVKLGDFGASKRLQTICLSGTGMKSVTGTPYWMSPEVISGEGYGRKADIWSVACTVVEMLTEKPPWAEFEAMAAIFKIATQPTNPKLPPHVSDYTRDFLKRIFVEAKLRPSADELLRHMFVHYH
Description: as §1, §2, §3

MKK4 = target: T3, MKK4 (Homo sapiens, UniProt P45985); assay: KINOMEscan competition binding assay, MKK4; conditions: read-out: Potency MKK4 (derived from % of control values, PoC)
T3 sequence (P45985 84-399): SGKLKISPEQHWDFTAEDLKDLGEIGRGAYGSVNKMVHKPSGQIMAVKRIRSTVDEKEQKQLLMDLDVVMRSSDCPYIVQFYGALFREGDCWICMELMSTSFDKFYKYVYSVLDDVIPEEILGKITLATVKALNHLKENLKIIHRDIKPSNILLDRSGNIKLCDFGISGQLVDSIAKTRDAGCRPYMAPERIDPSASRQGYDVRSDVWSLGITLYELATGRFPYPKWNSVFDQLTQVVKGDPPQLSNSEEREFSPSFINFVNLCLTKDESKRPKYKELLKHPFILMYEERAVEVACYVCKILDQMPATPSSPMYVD
Description: (§4) For investigation of the affinity to MKK4, MKK7 and JNK1, the kinases were produced in HEK-293 cells and subsequently tagged with DNA for qPCR detection. […] The liganded beads were blocked with excess biotin and washed with blocking buffer (SEABLOCK™ (Pierce), 1% BSA, 0.05% TWEEN®20, 1 mM DTT) to remove unbound ligand and to reduce nonspecific binding. […] All reactions were performed in polystyrene 96-well plates in a final volume of 0.135 mL. […] The kinase concentration in the eluates was measured by qPCR.

JNK1 = JNK1 (Homo sapiens, UniProt P45983); assay: KINOMEscan competition binding assay, selectivity JNK1 versus MKK4; conditions: ratio of percent of control
Chain of JNK1 (P45983 1-384 isoform P45983-2): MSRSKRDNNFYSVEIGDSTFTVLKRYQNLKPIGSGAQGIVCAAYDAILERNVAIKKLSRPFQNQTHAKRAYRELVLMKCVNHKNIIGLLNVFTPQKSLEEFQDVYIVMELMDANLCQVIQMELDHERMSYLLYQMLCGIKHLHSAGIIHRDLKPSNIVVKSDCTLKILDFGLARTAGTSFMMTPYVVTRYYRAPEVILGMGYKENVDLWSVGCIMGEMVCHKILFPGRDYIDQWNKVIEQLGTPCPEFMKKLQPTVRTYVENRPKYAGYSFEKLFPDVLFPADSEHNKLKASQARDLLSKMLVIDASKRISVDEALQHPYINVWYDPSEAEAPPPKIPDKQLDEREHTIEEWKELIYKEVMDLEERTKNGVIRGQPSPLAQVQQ
Description: as §4

MKK7 = target: T4, MKK7 (Homo sapiens, UniProt O14733); assay: KINOMEscan competition binding assay, selectivity MKK7 versus MKK4; conditions: Test conc. 0.1 μM; ratio of percent of control; N/E* per footnote
T4 sequence (O14733 1-419): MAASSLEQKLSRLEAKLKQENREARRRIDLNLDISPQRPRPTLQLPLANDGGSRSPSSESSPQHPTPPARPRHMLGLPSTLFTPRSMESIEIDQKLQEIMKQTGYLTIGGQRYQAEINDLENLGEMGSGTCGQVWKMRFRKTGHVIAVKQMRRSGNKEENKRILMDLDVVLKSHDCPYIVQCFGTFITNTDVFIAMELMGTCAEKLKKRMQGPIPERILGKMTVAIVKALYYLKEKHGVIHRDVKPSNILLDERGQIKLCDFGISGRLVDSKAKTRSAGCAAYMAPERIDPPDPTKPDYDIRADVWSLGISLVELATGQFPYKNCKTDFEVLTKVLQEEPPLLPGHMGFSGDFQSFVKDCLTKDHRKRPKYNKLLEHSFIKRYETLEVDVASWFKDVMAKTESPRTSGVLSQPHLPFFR
Description: as §4

[1] = Test conc 0.1 μM, N/E* = PoC for JNK1 = 100

Chain of BRaf (P15056 whole entry): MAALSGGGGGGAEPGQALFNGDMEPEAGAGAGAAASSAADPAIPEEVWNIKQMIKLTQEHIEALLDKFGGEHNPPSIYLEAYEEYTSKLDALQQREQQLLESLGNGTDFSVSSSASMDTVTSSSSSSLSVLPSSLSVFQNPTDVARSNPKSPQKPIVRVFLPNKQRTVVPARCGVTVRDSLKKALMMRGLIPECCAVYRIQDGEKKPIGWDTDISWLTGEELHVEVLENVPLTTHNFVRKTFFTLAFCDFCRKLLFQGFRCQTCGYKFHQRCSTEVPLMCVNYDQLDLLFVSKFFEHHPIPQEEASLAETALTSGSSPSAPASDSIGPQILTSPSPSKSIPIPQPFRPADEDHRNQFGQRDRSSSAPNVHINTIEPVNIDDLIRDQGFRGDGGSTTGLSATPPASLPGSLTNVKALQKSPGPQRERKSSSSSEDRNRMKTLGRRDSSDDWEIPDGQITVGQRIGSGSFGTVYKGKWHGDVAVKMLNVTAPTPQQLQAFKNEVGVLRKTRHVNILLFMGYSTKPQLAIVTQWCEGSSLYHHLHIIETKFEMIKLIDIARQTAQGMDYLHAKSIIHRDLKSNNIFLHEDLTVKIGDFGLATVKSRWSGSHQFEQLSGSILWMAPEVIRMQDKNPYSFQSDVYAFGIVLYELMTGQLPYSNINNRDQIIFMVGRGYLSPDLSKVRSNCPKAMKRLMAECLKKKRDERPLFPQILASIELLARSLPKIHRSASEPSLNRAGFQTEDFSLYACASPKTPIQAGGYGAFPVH

Row | Selectivity BRaf/MKK4 (BRaf) | IC50 (MKK4 active) [µM] | IC50 (MEKK2) [µM] | remaining binding at 0.1 µM (MKK4) [%] | Selectivity JNK1/MKK4 (JNK1; Test conc 10 μM) | Selectivity MKK7/MKK4 (MKK7) | Selectivity JNK1/MKK4 (JNK1; [1]) | SMILES
1 | 0.9 | 0.5 to 1 | > 10 | > 30 | >100 | 3.0 |  | CCCS(=O)(=O)Nc1ccc(F)c(C(=O)c2c[nH]c3ncc(-c4ccc(C(C)C)cc4)cc23)c1F [Example 7, N-(2,4-Difluoro-3-(5-(4-isopropylphenyl)-1H-pyrrolo[2,3-b]pyridine-3-carbonyl)phenyl)propane-1-sulfonamide]
2 | 4.2 | > 10 | > 10 | < 10 | >100 | 270 |  | CCCS(=O)(=O)Nc1ccc(F)c(C(=O)c2c[nH]c3ncc(-c4ccc5c(c4)OCO5)cc23)c1F [Example 10, N-(3-(5-(Benzo[d][1,3]dioxol-5-yl)-1H-pyrrolo[2,3-b]pyridine-3-carbonyl)-2,4-difluorophenyl)propane-1-sulfonamide]
3 | 7.8 | 0.5 to 1 | > 10 | 10 to 30 | >100 | 10 |  | CCCS(=O)(=O)Nc1ccc(F)c(C(=O)c2c[nH]c3ncc(-c4ccc(F)cc4C)cc23)c1F [Example 12, N-(2,4-Difluoro-3-(5-(4-fluoro-2-methylphenyl)-1H-pyrrolo[2,3-b]pyridine-3-carbonyl)phenyl)propane-1-sulfonamide]
4 | 10.5 | < 0.5 | 1 to 10 | 10 to 30 | >100 | 10 |  | CCCS(=O)(=O)Nc1ccc(F)c(C(=O)c2c[nH]c3ncc(-c4ccccc4Cl)cc23)c1F [Example 13, N-(3-(5-(2-Chlorophenyl)-1H-pyrrolo[2,3-b]pyridine-3-carbonyl)-2,4-difluorophenyl)propane-1-sulfonamide]
5 |  |  | 1 to 10 |  |  |  |  | CCCS(=O)(=O)Nc1ccc(F)c(C(=O)c2c[nH]c3ncc(-c4cccc(N)c4)cc23)c1F [Example 19, N-(3-(5-(3-Aminophenyl)-1H-pyrrolo[2,3-b]pyridine-3-carbonyl)-2,4-difluorophenyl)propane-1-sulfonamide]
6 |  |  | > 10 |  |  |  |  | COCCS(=O)(=O)Nc1ccc(F)c(C(=O)c2c[nH]c3ncc(-c4ccc(Cl)cc4)cc23)c1F [Example 32, N-(3-(5-(4-Chlorophenyl)-1H-pyrrolo[2,3-b]pyridine-3-carbonyl)-2,4-difluorophenyl)-2-methoxyethane-1-sulfonamide]
7 | 18.8 | > 10 | > 10 | < 10 |  | 19.6 | N/E* (PoC for JNK1 = 100) | CS(=O)(=O)Nc1cccc(C(=O)c2c[nH]c3ncc(-c4ccc5c(c4)OCCO5)cc23)c1F [Example 36, N-(3-(5-(2,3-Dihydrobenzo[b][1,4]dioxin-6-yl)-1H-pyrrolo[2,3-b]pyridine-3-carbonyl)-2-fluorophenyl)methanesulfonamide]
8 | 13.2 | 0.5 to 1 | > 10 | < 10 |  | 14.1 | N/E* (PoC for JNK1 = 100) | Cc1cc(F)ccc1-c1cnc2[nH]cc(C(=O)c3cccc(NS(C)(=O)=O)c3F)c2c1 [Example 37, N-(2-Fluoro-3-(5-(4-fluoro-2-methylphenyl)-1H-pyrrolo[2,3-b]pyridine-3-carbonyl)phenyl)methanesulfonamide]
9 |  |  | 1 to 10 |  |  |  |  | CCCS(=O)(=O)Nc1ccc(F)c(C(=O)c2c[nH]c3ncc(-c4ccc(OC)cc4Cl)cc23)c1F [Example 39, N-(3-(5-(2-Chloro-4-methoxyphenyl)-1H-pyrrolo[2,3-b]pyridine-3-carbonyl)-2,4-difluorophenyl)propane-1-sulfonamide]
10 | 7.7 | < 0.5 | 1 to 10 |  |  | 9.1 | N/E* (PoC for JNK1 = 100) | CCCS(=O)(=O)Nc1ccc(F)c(C(=O)c2c[nH]c3ncc(-c4cc5c(cc4Cl)OCO5)cc23)c1F [Example 43, N-(3-(5-(6-Chlorobenzo[d][1,3]dioxol-5-yl)-1H-pyrrolo[2,3-b]pyridine-3-carbonyl)-2,4-difluorophenyl)propane-1-sulfonamide]
11 |  | 1 to 10 | > 10 |  |  |  |  | CCCS(=O)(=O)Nc1ccc(F)c(C(=O)c2c[nH]c3ncc(-c4ccc(Cl)cc4)cc23)c1Cl [Example 86, N-(2-chloro-3-(5-(4-chlorophenyl)-1H-pyrrolo[2,3-b]pyridine-3-carbonyl)-4-fluorophenyl)propane-1-sulfonamide]
12 |  |  | < 0.5 |  |  |  |  | O=C(c1c(F)ccc(NS(=O)(=O)CCc2ccccc2)c1F)c1c[nH]c2ncc(-c3ccc(Cl)cc3)cc12 [Example 103, N-(3-(5-(4-chlorophenyl)-1H-pyrrolo[2,3-b]pyridine-3-carbonyl)-2,4-difluorophenyl)-2-phenylethane-1-sulfonamide]
13 |  |  | > 10 |  |  |  |  | CCCS(=O)(=O)Nc1ccc(F)c(C2(c3c[nH]c4ncc(-c5ccc(Cl)cc5)cc34)OCCO2)c1F [Example 104, N-(3-(2-(5-(4-chlorophenyl)-1H-pyrrolo[2,3-b]pyridin-3-yl)-1,3-dioxolan-2-yl)-2,4-difluorophenyl)propane-1-sulfonamide]
14 |  | 1 to 10 | > 10 |  |  |  |  | CCCS(=N)(=O)Nc1ccc(F)c(C(=O)c2c[nH]c3ncc(-c4ccc(Cl)cc4)cc23)c1F (centres unmarked) [Example 112, N-(3-(5-(4-chlorophenyl)-1H-pyrrolo[2,3-b]pyridine-3-carbonyl)-2,4-difluorophenyl)propane-1-sulfonimidamide]
